Measured values published in ChEMBL document CHEMBL4350955, “Novel Chemical Series of 5-Lipoxygenase-Activating Protein Inhibitors for Treatment of Coronary Artery Disease” (J Med Chem, 2019).
Converted amounts (≈) assume the structure as drawn.

Assays:
Cytochrome P450 3A4 = Cytochrome P450 3A4 (Homo sapiens, UniProt P08684); experiment: Inhibition of recombinant human CYP3A4 expressed in Escherichia coli assessed as maximum reduction in metabolite formation using coumarin based substrate by fluorescence assay
[1] = Distribution coefficient between octanol and sodium phosphate buffer, logD of the compound in pH 7.4 buffer by LC-MS/MS-based shake flask method
hERG (KCNH2) = hERG (KCNH2) (Homo sapiens, UniProt Q12809); experiment: Inhibition of human ERG at 10 uM high-throughput electrophysiology assay relative to control
physchem = conditions: phosphate buffer, pH 7.4
Description: Aqueous solubility in pH 7.4 phosphate buffer after 24 hrs by UPLC/MS/MS analysis

[2] = Metabolic stability in human hepatocytes assessed as parent compound remaining; format: ADME, cell-based, Hepatocyte
[3] = Apparent permeability across apical to basolateral side in human Caco2 cells; conditions: Caco-2
[4] = target: T1, Arachidonate 5-lipoxygenase-activating protein (Homo sapiens, UniProt P20292); experiment: (§1) Inhibition of FLAP in human whole blood assessed as reduction in calcium ionophore-stimulated LTB4 production preincubated for 4 hrs followed by calcium ionophore stimulation and measured after 20 mins by EIA; format: tissue-based
T1 sequence (P20292 whole entry): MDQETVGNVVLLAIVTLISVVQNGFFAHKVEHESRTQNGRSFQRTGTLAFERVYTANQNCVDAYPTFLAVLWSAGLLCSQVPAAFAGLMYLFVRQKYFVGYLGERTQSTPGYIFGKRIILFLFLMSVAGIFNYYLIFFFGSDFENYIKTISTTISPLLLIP

[5] = target: T2, Arachidonate 5-lipoxygenase-activating protein (Homo sapiens) (UniProt P20292); experiment: as §1; format: tissue-based
T2 sequence (whole entry): T1 sequence (P20292 whole entry)

[6] = Intrinsic clearance in cryopreserved human hepatocytes assessed as per million cells at 1 uM measured up to 60 mins by LC-MS/MS analysis; format: ADME, cell-based, Hepatocyte; conditions: read-out: CLH
[7] = target: T1, Arachidonate 5-lipoxygenase-activating protein; experiment: Inhibition of [3H]MK0591 binding to human FLAP expressed in […] cell membranes measured after 60 to 80 mins by scintillation counting method
[8] = target: T1, Arachidonate 5-lipoxygenase-activating protein; experiment: (§2) Inhibition of FLAP in human whole blood assessed as reduction in calcium ionophore-stimulated LTB4 production preincubated for 30 mins followed by calcium ionophore stimulation and measured after 20 mins by EIA; format: tissue-based
[9] = target: T2, Arachidonate 5-lipoxygenase-activating protein (Homo sapiens); experiment: as §2; format: tissue-based
[10] = target: Voltage-gated inwardly rectifying potassium channel KCNH2 (Homo sapiens, UniProt Q12809); experiment: Inhibition of human ERG by high-throughput electrophysiology assay
Cytochrome P450 2C9 = Cytochrome P450 2C9 (Homo sapiens, UniProt P11712); experiment: Inhibition of recombinant human CYP2C9 expressed in Escherichia coli assessed as maximum reduction in metabolite formation using coumarin based substrate by fluorescence assay; format: ADME
[11] = Half-life in po or iv dosed Sprague-Dawley rat; format: ADME, organism-based; conditions: in vivo
[12] = Protein binding in Sprague-Dawley rat plasma assessed as unbound fraction by LC-MS based equilibrium dialysis analysis; format: ADME, cell-free
[13] = Bioavailability in po dosed Sprague-Dawley rat; format: ADME, organism-based; conditions: in vivo
[14] = Protein binding in human plasma assessed as unbound fraction by LC-MS based equilibrium dialysis analysis; format: ADME, cell-free
[15] = Volume of distribution at steady state in po or iv dosed Sprague-Dawley rat; format: ADME, organism-based; conditions: in vivo, read-out: Vdss
[16] = Clearance in po or iv dosed Sprague-Dawley rat; format: ADME, organism-based; conditions: in vivo
CYP450 = CYP450 (Homo sapiens, UniProt P04798+P05177+P05181+P08684+P10632+P10635+P11509+P11712+P13584+P20813+P20815+P20853+P24462+P24903+P33260+P33261+P51589+P78329+P98187+Q02928+Q08477+Q16678+Q16696+Q5TCH4+Q6VVX0+Q7Z449+Q8TAV3+Q96SQ9+Q9HB55); experiment: Inhibition of CYP450 assessed as maximum reduction in metabolite formation using coumarin based substrate by fluorescence assay; format: ADME, protein assay; conditions: probe coumarin based substrate

Voltage-gated inwardly rectifying potassium channel KCNH2, sequence (Q12809 whole entry): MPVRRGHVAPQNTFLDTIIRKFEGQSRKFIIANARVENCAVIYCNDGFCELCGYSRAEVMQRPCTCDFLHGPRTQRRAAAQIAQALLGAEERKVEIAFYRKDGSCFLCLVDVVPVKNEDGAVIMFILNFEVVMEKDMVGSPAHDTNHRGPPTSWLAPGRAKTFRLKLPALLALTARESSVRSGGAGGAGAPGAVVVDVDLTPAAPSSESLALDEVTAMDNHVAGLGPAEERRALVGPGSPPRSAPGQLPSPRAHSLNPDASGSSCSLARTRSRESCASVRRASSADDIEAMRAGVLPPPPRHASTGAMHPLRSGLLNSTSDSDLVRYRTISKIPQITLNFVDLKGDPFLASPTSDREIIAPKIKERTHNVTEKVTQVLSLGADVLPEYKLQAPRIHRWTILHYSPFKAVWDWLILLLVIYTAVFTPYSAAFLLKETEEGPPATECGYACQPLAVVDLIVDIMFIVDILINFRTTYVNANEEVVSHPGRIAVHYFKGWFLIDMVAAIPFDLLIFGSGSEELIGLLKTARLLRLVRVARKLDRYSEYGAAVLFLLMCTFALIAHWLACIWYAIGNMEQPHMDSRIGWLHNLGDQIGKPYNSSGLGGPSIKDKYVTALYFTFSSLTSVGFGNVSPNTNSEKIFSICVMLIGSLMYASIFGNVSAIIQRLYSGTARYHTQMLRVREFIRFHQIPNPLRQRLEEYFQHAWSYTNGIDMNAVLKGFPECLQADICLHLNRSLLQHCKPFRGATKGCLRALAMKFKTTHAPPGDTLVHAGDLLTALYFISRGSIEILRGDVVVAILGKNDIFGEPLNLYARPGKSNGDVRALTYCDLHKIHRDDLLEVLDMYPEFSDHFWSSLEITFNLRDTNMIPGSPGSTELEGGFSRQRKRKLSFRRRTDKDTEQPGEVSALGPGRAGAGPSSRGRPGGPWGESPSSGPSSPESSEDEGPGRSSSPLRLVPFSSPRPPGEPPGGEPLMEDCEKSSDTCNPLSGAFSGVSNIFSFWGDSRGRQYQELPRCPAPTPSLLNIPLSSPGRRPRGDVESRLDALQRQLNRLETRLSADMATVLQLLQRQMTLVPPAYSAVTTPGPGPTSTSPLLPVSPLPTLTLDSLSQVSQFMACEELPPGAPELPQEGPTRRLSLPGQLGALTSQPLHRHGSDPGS
Cytochrome P450 3A4, sequence (P08684 whole entry): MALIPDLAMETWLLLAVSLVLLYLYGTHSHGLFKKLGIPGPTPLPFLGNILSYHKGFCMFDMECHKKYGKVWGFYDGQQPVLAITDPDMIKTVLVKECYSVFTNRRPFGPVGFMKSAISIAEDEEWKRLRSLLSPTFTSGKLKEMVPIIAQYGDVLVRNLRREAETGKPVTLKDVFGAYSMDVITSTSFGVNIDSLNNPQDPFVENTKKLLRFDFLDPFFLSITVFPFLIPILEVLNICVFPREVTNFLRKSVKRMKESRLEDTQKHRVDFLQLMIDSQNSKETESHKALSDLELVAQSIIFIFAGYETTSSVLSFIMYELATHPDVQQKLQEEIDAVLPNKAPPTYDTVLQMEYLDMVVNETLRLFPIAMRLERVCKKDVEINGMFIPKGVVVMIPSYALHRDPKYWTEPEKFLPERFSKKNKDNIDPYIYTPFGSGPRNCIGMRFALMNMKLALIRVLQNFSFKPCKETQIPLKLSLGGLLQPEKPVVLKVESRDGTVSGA
Cytochrome P450 2C9, sequence (P11712 whole entry): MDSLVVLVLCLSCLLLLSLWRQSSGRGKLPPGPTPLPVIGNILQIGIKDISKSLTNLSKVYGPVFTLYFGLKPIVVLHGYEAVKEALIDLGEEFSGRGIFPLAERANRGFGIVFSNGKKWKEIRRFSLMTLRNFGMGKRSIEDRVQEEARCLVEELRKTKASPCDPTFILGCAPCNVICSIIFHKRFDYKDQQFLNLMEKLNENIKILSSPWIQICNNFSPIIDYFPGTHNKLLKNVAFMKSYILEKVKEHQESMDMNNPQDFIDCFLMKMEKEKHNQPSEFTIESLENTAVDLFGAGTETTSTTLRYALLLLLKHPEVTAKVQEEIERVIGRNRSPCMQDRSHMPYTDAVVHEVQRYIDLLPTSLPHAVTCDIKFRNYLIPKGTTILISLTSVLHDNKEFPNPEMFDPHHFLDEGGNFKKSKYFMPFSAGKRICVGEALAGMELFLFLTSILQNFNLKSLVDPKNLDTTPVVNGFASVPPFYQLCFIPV
hERG (KCNH2), sequence (Q12809 whole entry): as the sequence (Q12809 whole entry) above

Structure (SMILES)	logD [1]	solubility at 24 h (physchem) [µM]	Papp A→B [3] [nm/s]	hepatocyte CLint at 1 µM [6] [µL/min/1e6 cells]	IC50 [7] [µM]	IC50 [8] [µM]	fpIC50 [9]	further results
Cc1cc(-c2ccc3c([C@@H]4C[C@H]5C[C@H]5C[C@H]4C(=O)Nc4cn(C)nc4C(N)=O)noc3c2)n[nH]1	3.5	12 (≈ 5.51 µg/mL)	230	16	0.0398			IC50 (Cytochrome P450 3A4): 3.16 µM; inhibition at 10 µM (hERG (KCNH2)): 12%; Stability [2]: 69%; IC50 [4]: 0.126 µM; fpIC50 [5]: 8.5
Cn1cc(NC(=O)[C@@H]2C[C@@H]3C[C@@H]3C[C@H]2C(=O)c2ccc(-c3cc[nH]n3)cc2)c(C(F)(F)F)n1	3.7	27 (≈ 12.4 µg/mL)	570	13	0.0126	0.0251	9	IC50 (Cytochrome P450 3A4): 3.98 µM; Stability [2]: 76%
COc1cc(NC(=O)[C@@H]2CCCC[C@H]2C(=O)c2ccc(-c3cc[nH]n3)cc2)ncn1	3.9	22 (≈ 8.92 µg/mL)	690	22	0.0158	0.0158	9.3	IC50 [10]: 12.6 µM; IC50 (Cytochrome P450 2C9): 5.01 µM
O=C(NCCc1ccccn1)[C@@H]1CCCC[C@H]1C(=O)c1ccc(-c2cc[nH]n2)cc1	3				0.251	2.51	6.7	
Cc1cc(-c2ccc(C(=O)[C@@H]3CCCC[C@H]3C(=O)Nc3cn(C)nc3C(N)=O)cc2)n[nH]1	3.1	60 (≈ 26.1 µg/mL)	220	12				half-life [11]: 1.4 h; fraction unbound [12]: 0.024; bioavailability [13]: 40%; IC50 [10]: > 31.6 µM; Stability [2]: 79%; fraction unbound [14]: 0.076; Vd [15]: 0.64 L/kg; IC50 (Cytochrome P450 2C9): 10 µM; clearance [16]: 0.33 L/h/kg
Cc1cc(-c2ccc(C(=O)[C@@H]3CCCC[C@H]3C(=O)Nc3cn(C)nc3C(N)=O)cc2)[nH]n1							7.9	
Cc1nn(C)cc1NC(=O)[C@@H]1CCCC[C@H]1C(=O)c1ccc(-c2cc[nH]n2)cc1 (racemic) [listing 1 of 2 here]							7.1	
Cc1nn(C)cc1NC(=O)[C@@H]1CCCC[C@H]1C(=O)c1ccc(-c2cc[nH]n2)cc1F (racemic)	2.9	500 (≈ 205 µg/mL)	340	14	0.126	0.0631	8	IC50 (CYP450): > 20 µM; half-life [11]: 1.2 h; fraction unbound [12]: 0.11; bioavailability [13]: 85%; IC50 [10]: > 12.6 µM; fraction unbound [14]: 0.14; Vd [15]: 1.1 L/kg; clearance [16]: 0.798 L/h/kg
Cc1noc(C)c1NC(=O)[C@@H]1CCCC[C@H]1C(=O)c1ccc(-c2cc[nH]n2)cc1 (racemic)				6	0.2	0.501		
Cc1nn(C)cc1NC(=O)[C@H]1CCCC[C@@H]1C(=O)c1ccc(-c2cc[nH]n2)cc1					2	7.94	5.8	
Cc1nn(C)cc1NC(=O)[C@@H]1CCCC[C@H]1C(=O)c1ccc(-c2ccccn2)cc1 (racemic)	2.8				0.501	2	6.8	
Cc1cnn(-c2ccc(C(=O)[C@@H]3CCCC[C@H]3C(=O)Nc3cccc(C(N)=O)c3)cc2)c1 (racemic)	3.6				0.316	2	7.4	
Cc1nn(C)cc1NC(=O)[C@@H]1CCCC[C@H]1C(=O)c1ccc(-c2cc[nH]n2)cc1 [listing 1 of 2 here]					0.0501	0.2		
Cc1nn(C)cc1N(C)C(=O)[C@@H]1CCCC[C@H]1C(=O)c1ccc(-c2cc[nH]n2)cc1	3				0.2	0.251	7.5	
CC(=O)c1cccc(-c2ccc(C(=O)[C@@H]3CCCC[C@H]3C(=O)Nc3c(C)noc3C)cc2)c1 (racemic)	3.9				2.51			
Cn1cc(NC(=O)[C@@H]2CCCC[C@H]2C(=O)c2ccc(-c3cc[nH]n3)cc2)c(C(F)(F)F)n1				12	0.0251	0.0501	8.5	half-life [11]: 1.6 h; fraction unbound [12]: 0.054; bioavailability [13]: 62%; Stability [2]: 62%; fraction unbound [14]: 0.063; Vd [15]: 1 L/kg; clearance [16]: 0.408 L/h/kg

Structure (SMILES)	logD [1]	solubility at 24 h (physchem) [µM]	Papp A→B [3] [nm/s]	hepatocyte CLint at 1 µM [6] [µL/min/1e6 cells]	IC50 [7] [µM]	IC50 [8] [µM]	fpIC50 [9]	further results
Cc1nn(C)cc1NC(=O)[C@@H]1CCCC[C@H]1C(=O)c1ccc(-c2cc[nH]n2)cc1 (racemic) [listing 2 of 2 here]	2.6	92 (≈ 36 µg/mL)	260	< 4	0.0794	0.501		IC50 (CYP450): > 20 µM; IC50 [10]: > 12.6 µM
O=C(Nc1cnn2cccnc12)[C@@H]1CCCC[C@H]1C(=O)c1ccc(-c2cc[nH]n2)cc1	2.9	60 (≈ 24.9 µg/mL)	120	5	0.0316	0.0398	8.4	IC50 (CYP450): > 20 µM; IC50 [10]: > 31.6 µM
Cc1nn(C)cc1NC(=O)[C@@H]1CCCC[C@H]1C(=O)c1ccc(-c2cc[nH]n2)nc1 (racemic)	1.8				1	3.98	5.8	
Cc1cc(-c2cc[nH]n2)ccc1C(=O)[C@@H]1CCCC[C@H]1C(=O)Nc1cn(C)nc1C (racemic)	3				1	0.794	6.9	
Cc1c[nH]nc1-c1ccc(C(=O)[C@@H]2CCCC[C@H]2C(=O)Nc2cn(C)nc2C)cc1 (racemic)	3.1				1			
Cn1ncc(NC(=O)[C@@H]2C[C@@H]3C[C@@H]3C[C@H]2C(=O)c2ccc(-c3cc[nH]n3)cc2)c1C(F)(F)F	3.7	63 (≈ 28.8 µg/mL)	590	12	0.0126	0.0501	8.5	half-life [11]: 1.4 h; fraction unbound [12]: 0.04; bioavailability [13]: 100%; fraction unbound [14]: 0.066; Vd [15]: 1.1 L/kg; IC50 (Cytochrome P450 2C9): 5.01 µM; clearance [16]: 0.588 L/h/kg
Cn1cc(NC(=O)[C@@H]2CCCC[C@H]2C(=O)c2ccc(-c3cc[nH]n3)cc2)c(OC(F)F)n1							8.5	
Cc1nn(C)cc1NC(=O)[C@@H]1[C@H]2CC[C@H](CC2)[C@H]1C(=O)c1ccc(-c2cc[nH]n2)cc1F (racemic)	4				0.0631	0.2	7.1	
Cc1nn(C)cc1NC(=O)[C@@H]1CCCC[C@H]1C(=O)c1ccc(-c2cc[nH]n2)cc1 [listing 2 of 2 here]							7.4	
Cc1nn(C)cc1NC(=O)[C@@H]1CCCC[C@H]1C(=O)c1ccc(-c2ccnn2C)cc1 (racemic)	2.5				25.1	31.6	5.1	
Cc1cc(-c2ccc(C(=O)[C@@H]3CCCC[C@H]3C(=O)Nc3cn(C)nc3C(N)=O)c(F)c2)[nH]n1	3.5	31 (≈ 14 µg/mL)	170	18			8.3	IC50 (Cytochrome P450 3A4): 6.31 µM; IC50 [10]: > 31.6 µM
Cn1ncc(NC(=O)[C@@H]2CCCC[C@H]2C(=O)c2ccc(-c3cc[nH]n3)cc2)c1C(F)(F)F	3.6	80 (≈ 35.6 µg/mL)	590	7	0.0398	0.0501	8.4	half-life [11]: 3 h; fraction unbound [12]: 0.042; inhibition at 10 µM (hERG (KCNH2)): 32%; bioavailability [13]: 100%; Stability [2]: 83%; fraction unbound [14]: 0.075; Vd [15]: 0.97 L/kg; IC50 (Cytochrome P450 2C9): 6.31 µM; clearance [16]: 0.288 L/h/kg
Cc1cc(-c2ccc3c([C@@H]4CCCC[C@H]4C(=O)Nc4cn(C)nc4C(N)=O)noc3c2)n[nH]1	3.4	27 (≈ 12.1 µg/mL)	70	13	0.0794			IC50 [10]: > 31.6 µM; Stability [2]: 68%; IC50 (Cytochrome P450 2C9): 7.94 µM; IC50 [4]: 0.0631 µM; fpIC50 [5]: 8.5
CC(C)(CNC(=O)[C@@H]1CCCC[C@H]1C(=O)c1ccc(-c2cc[nH]n2)cc1)S(C)(=O)=O	2.1				0.0631			IC50 [4]: 0.126 µM; fpIC50 [5]: 7.4
Cc1nn(C)cc1NC(=O)[C@@H]1CCCC[C@H]1C(=O)c1ccc(-c2ccc[nH]2)cc1 (racemic)	3.1				1			
